For orientation: IC50 means the point on the concentration scale where inhibition reaches its midpoint.

The text below walks through data of article PMC12119673, “Apoptotic cell death induced by copper (II), manganese (II) and silver (I) complexes containing bridging dicarboxylate and 1,10-phenanthroline ligands: one of the multi-modes of anticancer activity?” (Biometals, 2025).

Format in all cases: cell-based, human
In one series the test system is MCF-12A cells. Kind of series: Detection of reactive oxygen species with H2DCFDA. The conditions noted are these: 0.78 μM to 50 μM, over a 6-h period, fold-change compared to the negative control. The method, then: The production of reactive oxygen species (ROS) was detected in MCF-7 and MCF12A cells using the cell-permeant dye 2',7'- dichlorodihydrofluorescein diacetate (H2DCFDA) (Thermo Fisher Scientific, Ireland) (Cat# D399). Cells were seeded at a density of 1 × 10^4 in 96 well plates and incubated for 24 h. Post-incubation, the media was removed, and cells were washed with PBS. A 10 μM DCFH-DA working solution was prepared using cell culture media, and the cells were incubated with 100 μl of the solution in the dark for 30 min. […] Fluorescent measurements were recorded at 15 min, 30 min, 1 h, and subsequently every hour up to 6 h using a Varioskan Lux™ multimode microplate reader (Thermo Fisher Scientific, Ireland) at an excitation wavelength of 495 nm and emission of 527 nm. The assay was repeated three independent times, using three replicates per plate.
The cells were treated with a concentration range from 0.78 μM to 50 μM, and the response was measured over a 6-h period. This facilitated the evaluation of whether there was a time and/or concentration dependent response from the cells. Hydrogen peroxide (H2O2) was used as a positive control. ROS production is presented as fold-change compared to the negative control.

Series [1] has as its system caspase-3/7 in MCF-12A cells. Nature of the series: Caspase 3/7 expression, FLICA (FAM-DEVD-FMK) flow cytometry. The conditions noted are these: IC25 concentration, 24 h. The method, then: The expression of caspase-3/7 in MCF-7 and MCF-12A cells was determined using the VybrantTM FAM™ Caspase-3 and Caspase-7 Assay Kit (Cat# V35118) (Thermo Fisher Scientific, Ireland). Cells were seeded at a density of 1 × 10^5 in T25 flasks and incubated in routine conditions for 24 h. […] Post-exposure, the cells were harvested for staining.
Flow cytometry data analysis was performed with the CytExpert package (Ver. 2.4) (Beckman Coulter, USA) and Microsoft^Ⓡ Excel (USA). The mean MFI and percentage cells were calculated using these packages, followed by one-way ANOVA analysis with post hoc Bonferroni correction using GraphPad Prism (Ver. 9.4) (GraphPad, USA).
The expression of caspase-3/7 was analysed in MCF-7 and MCF-12A cells using fluorescent labelled inhibitors of caspase (FLICA): FAM-DEVD-FMK. […] Following the apoptosis induction study, it was of interest to determine whether the complexes were stimulating the executioner caspases triggering the irreversible proteolytic degradation of cells, culminating in cell death. […] These three complexes were selected based on their structural similarities, while incorporating alternative metal centres.
In general terms: In flow cytometry, cells or beads pass a laser one at a time.

A short description of series [2]: In vitro cytotoxicity assessment, alamar blue assay, 24-h exposure. Particulars: human, MCF-12A cells; MCF-12A, 24-h exposure, 50% reduction in metabolic activity, mean ± SD (N = 3); read-out: Cytotoxic activity IC50 ± SD. The method, then: The MCF-7 (human breast cancer) and MCF-12A (non-tumourigenic human breast) cell lines were obtained from the Technological University Dublin (TUDublin, City Campus) internal cell bank and commercially from the American Type Culture Collection (ATCC), respectively. Both cell lines were cultured using Dulbecco’s Modified Eagle Medium/Nutrient Mixture F-12 Ham (DMEM-F12) (Sigma, Ireland) (Cat# D6421) media. The MCF-7 media was supplemented with 10% Foetal Bovine Serum (Sigma, Ireland) (Cat# F7524) and 1% L-Glutamine (Sigma, Ireland) (Cat# 592020C). The MCF-12A media was supplemented with 5% Equine Serum (Sigma, Ireland) (Cat# H0146) 1.25% L-Glutamine (Sigma, Ireland) (Cat# 592020C), 20 ng/ml Human Epidermal Growth Factor (Thermo Fisher Scientific, Ireland) (Cat# PHG0313), 0.01 mg/ml insulin (Thermo Fisher Scientific, Ireland)(Cat# 12585014) and 500 ng/ml hydrocortisone (Sigma, Ireland) (Cat# H0888). The cells were grown in T75 culture flasks (Sarstedt, Germany) (Cat# 83.3911.002) and were incubated in a 5% CO2 atmosphere at 37 ℃. The cells were monitored daily, and once 80–90% confluence was reached, they were subcultured with an enzymatic dissociation method using trypsin. Both cell lines were routinely subcultured for 1 week prior to beginning experimental work, to ensure the cells had adapted to the environment.
The MCF-7 and MCF-12A cells were seeded at a density of 1 × 10^4 in 96-well flat bottom plates (Sarstedt, Germany) (Cat# 83.3924) and incubated in a 5% CO2 atmosphere at 37 ℃ for 24 h prior to exposure to the complexes. Following the incubation period, the media was removed, and cells were washed with sterile phosphate-buffered saline (PBS). […] All agents were diluted in supplemented cell culture media, and the cells were exposed to a concentration range of 0.5 μM–100 μM for 24 h in the conditions outlined previously. Following the exposure period, the drug-containing media was removed, and cells were washed three times with PBS, ensuring complete removal of the test agents. A 5% working solution of Alamar Blue (Thermo Fisher Scientific, Ireland) (Cat# DAL1100) was prepared in dark conditions using unsupplemented cell culture media. 100 μl of the solution was added to each well, and the cells were incubated for 3 h. Following incubation, absorbance values were obtained using a Varioskan Lux (Thermo Scientific, USA) at 570 nm and 600 nm wavelengths. Each exposure was carried out in triplicate plates and was repeated three independent times.
The software packages Microsoft^Ⓡ Excel (USA) and GraphPad Prism (Ver. 10.0.3) (GraphPad, USA) were used to analyse the alamar blue data. The treated sample values were first normalised to the negative control values. After normalisation, the mean and standard deviations (SD) were established using Microsoft^Ⓡ Excel. The statistical analysis package GraphPad was then used to determine the IC25 and IC50 concentrations. […] A p value of 0.05 or lower is considered to be statistically significant.
(In general: The colour change of resazurin is a common sign of viable cells or microbes.)

As for “{[Mn2(oda)3(phen)4]^2−[Mn2(oda)(phen)4 (H2O)2]^2+} [Complex 7]”, the ROS production entry in the series on MCF-12A cells is listed as “markedly elevated production of ROS”.

For `O=C([O-])CCCCCCC(=O)[O-].[Ag+].[Ag+].c1cnc2c(c1)ccc1cccnc12.c1cnc2c(c1)ccc1cccnc12.c1cnc2c(c1)ccc1cccnc12` [Complex 4, [Ag2(oda)(phen)3]], the “Expression of caspase-3/7 (% cells)” value in series [1] is recorded as “highest expression”.

As for `c1cnc2c(c1)ccc1cccnc12` [Phen, 1,10-Phenanthroline], in series [2], the IC50 at 24 h is 20.9 ± 1.96 µM.
